ChEMBL document CHEMBL5325427
In brackets after ≈: the same amount, converted by molar mass.

System: SARS-CoV-2
Assay: Antiviral activity against SARS CoV-2 DG614G infected human Vero cells overexpressing ACE2 compound preincubated with cells for 1 hr followed by viral infection and measured after 24 hrs by flow cytometry analysis
Type: functional, organism-based
Details: Severe acute respiratory syndrome coronavirus 2, DG614G

Which IC50 does the source give for `COc1ccc2[nH]c3c(c2c1)C[C@]1(OC)CC[C@H]2c4[nH]c5ccccc5c4CCN2[C@@H]1C3` here?
The IC50 was 0.06 µg/mL (≈ 0.14 µM).
